For the test, the target named is T1, FLK-1 (Mus musculus, UniProt P35918).
T1 construct: GST-Flklcd purified from sf9 recombinant baculovirus transfomnation (SUGEN, Inc.); host or cells: Sf9 insect cells, recombinant baculovirus
Put plainly: GST-FLK-1 bioassay (tyrosine kinase activity on poly(glu-tyr)). Type of test: biochemical. The note with it: GST-Flk1, poly(glu-tyr) substrate, 0.5 μM ATP. The method, then:
This assay analyzes the tyrosine kinase activity of GST-Flk1 on poly(glu-tyr) peptides.
1. Corning 96-well ELISA plates (Corning Catalog No. 25805-96).
2. poly(glu-tyr) 4:1, lyophilizate (Sigma Catalog No. P0275), 1 mg/ml in sterile PBS.
3. PBS Buffer: for 1 L, mix 0.2 g KH2PO4, 1.15 g Na2HPO4, 0.2 g KCl and 8 g NaCl in approx. 900 ml dH2O. When all reagents have dissolved, adjust the pH to 7.2 with HCl. Bring total volume to 1 L with dH2O.
4. PBST Buffer: to 1 L of PBS Buffer, add 1.0 ml Tween-20.
5. TBB—Blocking Buffer: for 1 L, mix 1.21 g TRIS, 8.77 g NaCl, 1 ml TWEEN-20 in approximately 900 ml dH2O. Adjust pH to 7.2 with HCl. Add 10 g BSA, stir to dissolve. Bring total volume to 1 L with dH2O. Filter to remove particulate matter.
6. 1% BSA in PBS: add 10 g BSA to approx. 990 ml PBS buffer, stir to dissolve. Adjust total volume to 1 L with PBS buffer, filter to remove particulate matter.
8. GST-Flklcd purified from sf9 recombinant baculovirus transfomnation (SUGEN, Inc.).
12. Kinase Dilution Buffer (KDB): mix 10 ml Hepes (pH 7.5), 1 ml 5M NaCl, 40 μL 100 mM sodium orthovanadate and 0.4 ml of 5% BSA in dH2O with 88.56 ml dH2O.
13. NUNC 96-well V bottom polypropylene plates, Applied Scientific Catalog #AS-72092
14. EDTA: mix 14.12 g ethylenediaminetetraacetic acid (EDTA) with approx. 70 ml dH2O. Add 10 N NaOH until EDTA dissolves. Adjust pH to 8.0. Adjust total volume to 100 ml with dH2O.
15. 1° and 2° Antibody Dilution Buffer: mix 10 ml of 5% BSA in PBS buffer with 89.5 ml TBST.
16. Anti-phosphotyrosine rabbit polyclonal antisera (SUGEN, Inc.)
17. Goat anti-rabbit HRP conjugate.
18. ABST solution: To approx. 900 ml dH2O add 19.21 g citric acid and 35.49 g Na2HPO4. Adjust pH to 4.0 with phosphoric acid. Add 2,2′-Azinobis(3-ethyl-benzthiazoline-6-sulfonic acid (ABTS, Sigma, Cat. No. A-1888, hold for approx. ½ hour, filter.
19. 30% Hydrogen Peroxide.
20. ABST/H2O2: add 3 μl of H2O2 to 15 ml of ABST solution.
1. Coat Corning 96-well ELISA plates with 2 μg of polyEY in 100 μl PBS/well, hold at room temperature for 2 hours or at […] overnight. Cover plates to prevent evaporation.
2. Remove unbound liquid from wells by inverting plate. Wash once with TBST. Pat the plate on a paper towel to remove excess liquid.
3. Add 100 μl of 1% BSA in PBS to each well. Incubate, with shaking, for 1 hr. at room temperature.
5. Soak wells with 50 mM HEPES (pH7.5, 150 μl/well).
6. Dilute test compound with dH2O/4% DMSO to 4 times the desired final assay concentration in 96-well polypropylene plates.
7. Add 25 μl diluted test compound to each well of ELISA plate. In control wells, place 25 μl of dH2O/4% DMSO.
8. Dilute GST-Flk1 0.005 μg (5 ng)/well in KDB.
9. Add 50 μl of diluted enzyme to each well.
10. Add 25 μl 0.5 M EDTA to negative control wells.
11. Add 25 μl of 40 mM MnCl2 with 4×ATP (2 μM) to all wells (100 μl final volume, 0.5 μM ATP final concentration in each well).
12. Incubate, with shaking, for 15 minutes at room temperature.
13. Stop reaction by adding 25 μl of 500 mM EDTA to each well.
14. Wash 3× with TBST and pat plate on paper towel to remove excess liquid.
15. Add 100 μl per well anti-phosphotyrosine antisera, 1:10,000 dilution in antibody dilution buffer. Incubate, with shaking, for 90 min. at room temperature.
17. Add 100 μl/well of goat anti-rabbit HRP conjugate (1:6,000 in antibody dilution buffer). Incubate, with shaking, for 90 minutes are room temperature.
19. Add 100 μl room temperature ABST/H2O2 solution to each well.
20. Incubate, with shaking for 15 to 30 minutes at room temperature.
21. If necessary, stop reaction by adding 100 μl of 0.2 M HCl to each well.
22. Read results on Dynatech MR7000 ELISA reader with test filter at 410 nM and reference filter at 630 nM.

pIC50: −log10 of the molar value.

T1 sequence (P35918 784-1345 limits assumed): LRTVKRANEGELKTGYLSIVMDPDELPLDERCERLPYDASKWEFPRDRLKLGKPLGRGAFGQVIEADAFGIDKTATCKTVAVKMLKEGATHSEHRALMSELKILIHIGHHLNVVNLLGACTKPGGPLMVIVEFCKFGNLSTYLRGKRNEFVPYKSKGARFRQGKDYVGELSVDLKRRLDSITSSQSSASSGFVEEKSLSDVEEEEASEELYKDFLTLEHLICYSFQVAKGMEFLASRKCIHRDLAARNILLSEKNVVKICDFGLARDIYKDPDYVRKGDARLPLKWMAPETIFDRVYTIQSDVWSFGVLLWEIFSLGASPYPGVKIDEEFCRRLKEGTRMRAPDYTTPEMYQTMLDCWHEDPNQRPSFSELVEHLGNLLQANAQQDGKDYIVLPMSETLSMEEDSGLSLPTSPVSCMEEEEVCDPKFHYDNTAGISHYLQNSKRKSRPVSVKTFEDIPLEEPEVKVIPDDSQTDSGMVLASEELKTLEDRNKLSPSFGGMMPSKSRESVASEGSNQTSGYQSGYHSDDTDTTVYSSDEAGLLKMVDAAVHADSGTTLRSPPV

As usually defined, the pIC50 is the negative decadic logarithm of the IC50, by convention in mol/L. A high value points to a small IC50. The molecule `Cc1cc(C(=O)NCCn2ccnn2)c(/C=C2\C(=O)Nc3cccc(-c4ccccc4F)c32)[nH]1` [Example 99, 2-[4-(2-Fluoro-phenyl)-2-oxo-1,2-dihydro-indol-3-ylidenemethyl]-5-methyl-1H-pyrrole-3-carboxylic Acid (2-[1,2,3]Triazol-1-yl-ethyl)-amide] gave a pIC50 of 6.77.
The value for `Cc1cc(C(=O)N2CC[C@@H](N(C)C)C2)c(/C=C2\C(=O)Nc3cccc(-c4ccc(Cl)cc4)c32)[nH]1` [Example 25, 4-(4-Chloro-phenyl)-3-[3-((R)-3-dimethylamino-pyrrolidine-1-carbonyl)-5-methyl-1H-pyrrol-2-ylmethylene]-1,3-dihydro-indol-2-one] was 6.74; that for `Cc1[nH]c(/C=C2\C(=O)Nc3cccc(-c4ccc(Br)cc4)c32)c(C)c1C(=O)NCCN(C(C)C)C(C)C` [Example 60, 5-[4-(4-Bromo-phenyl)-2-oxo-1,2-dihydro-indol-3-ylidenemethyl]-2,4-dimethyl-1H-pyrrole-3-carboxylic Acid (2-Diisopropylamino-ethyl)-amide] was 7.74.
The value for `Cc1[nH]c(/C=C2\C(=O)Nc3cccc(-c4cccc(F)c4)c32)c(C)c1C(=O)NCCn1ccnn1` [Example 15, 5-[4-(3-Fluoro-phenyl)-2-oxo-1,2-dihydro-indol-3-ylidenemethyl]-2,4-dimethyl-1H-pyrrole-3-carboxylic Acid (2-[1,2,3]Triazol-1-yl-ethyl)-amide] was 7.49; that for `CCN(CC)CCNC(=O)c1c(C)[nH]c(/C=C2\C(=O)Nc3cccc(-c4cccc(F)c4)c32)c1C` [Example 13, 5-[4-(3-Fluoro-phenyl)-2-oxo-1,2-dihydro-indol-3-ylidenemethyl]-2,4-dimethyl-1H-pyrrole-3-carboxylic Acid (2-Diethylamino-ethyl)-amide] was 7.89; that for `COc1ccc(-c2cccc3c2/C(=C/c2[nH]c(C)c(C(=O)N4C[C@@H](C)N[C@@H](C)C4)c2C)C(=O)N3)cc1` [Example 40, 3-[4-((cis)-3,5-Dimethyl-piperazine-1-carbonyl)-3,5-dimethyl-1H-pyrrol-2-ylmethylene]-4-(4-methoxy-phenyl)-1,3-dihydro-indol-2-one] was 7.39.
Next, `Cc1[nH]c(/C=C2\C(=O)Nc3cccc(-c4ccc(F)cc4)c32)c(C)c1C(=O)NCCN1CCCC1` [Example 6, 5-[4-(4-Fluoro-phenyl)-2-oxo-1,2-dihydro-indol-3-ylidenemethyl]-2,4-dimethyl-1H-pyrrole-3-carboxylic Acid (2-Pyrrolidin-1-yl-ethyl)-amide]: 7.68; `CCN(CC)CCNC(=O)c1c(C)[nH]c(/C=C2\C(=O)Nc3cccc(-c4cccc(Cl)c4)c32)c1C` [Example 29, 5-[4-(3-Chloro-phenyl)-2-oxo-1,2-dihydro-indol-3-ylidenemethyl]-2,4-dimethyl-1H-pyrrole-3-carboxylic Acid (2-Diethylamino-ethyl)-amide]: 7.39.
`CCOC(=O)c1c(C)[nH]c(/C=C2\C(=O)Nc3cccc(-c4cccc(F)c4)c32)c1CCCN1CCN(C)CC1` [Example 18, 5-[4-(3-Fluoro-phenyl)-2-oxo-1,2-dihydro-indol-3-ylidenemethyl]-2-methyl-4-[3-(4-methyl-piperazin-1-yl)-propyl]-1H-pyrrole-3-carboxylic Acid Ethyl Ester] gave a pIC50 of 6.38.
The value for `Cc1[nH]c(/C=C2\C(=O)Nc3cccc(-c4ccccc4F)c32)c(C)c1C(=O)N1CCN(C)CC1` [Example 93, 3-[3,5-Dimethyl-4-(4-methyl-piperazine-1-carbonyl)-1H-pyrrol-2-ylmethylene]-4-(2-fluoro-phenyl)-1,3-dihydro-indol-2-one] was greater than 8.04; that for `COc1ccc(-c2cccc3c2/C(=C/c2[nH]c(C)c(C(=O)NCCN4CCCC4)c2C)C(=O)N3)cc1` [Example 38, 5-[4-(4-Methoxy-phenyl)-2-oxo-1,2-dihydro-indol-3-ylidenemethyl]-2,4-dimethyl-1H-pyrrole-3-carboxylic Acid (2-Pyrrolidin-1-yl-ethyl)-amide] was 7.54; that for `Cc1[nH]c(/C=C2\C(=O)Nc3cccc(-c4ccc(Cl)cc4)c32)c(C)c1C(=O)N1CCN(C)CC1` [Example 20, 4-(4-Chloro-phenyl)-3-[3,5-dimethyl-4-(4-methyl-piperazine-1-carbonyl)-1H-pyrrol-2-ylmethylene]-1,3-dihydro-indol-2-one] was 6.64.
